“Also recorded” adds a separate entry of the source. Structures can show the parent of a compound that is named as a salt. Where two headings read alike, the source gives them in different places. Values belong to the compound of their own block, whether it stands above or below them.
Legend:
[1] = Degree of drug incorporation into lipid-drug complex (size-exclusion chromatography); format: physicochemical; details: for Degree of Lipid Association (% total): drug associated with lipid membranes, pH 7.4
Description: (§1) The mixture was rotor-evaporated under N2 and reduced pressure. Then it was resuspended in sterile phosphate-buffered saline (PBS, pH 7.4), to a final lipid concentration of 50 mM, and homogenized with a probe sonicator until a uniform particle size of about 50 nm to about 80 nm diameter was reached. Sonication is preferably done until sonicated unilamellar vesicles that are stable at their minimum diameter are obtained. […] The size and zeta potential (surface potential at hydrodynamic plane) of the lipid-drug complex was monitored using a Malvern Zetasizer 5000 operating at photon correlation spectroscopy mode and electrophoretic mode, respectively. […] The rest of the preparation procedure remains the same.
The degree of drug incorporation into the lipid-drug complex was determined by subjecting a small fraction of the preparation to size-exclusion chromatography using a Biogel A-0.5 M media (1×10 cm). […] By analyzing the amount of fraction in the lipid-associated complex, and free form with respect to the total amount loaded onto the column, the percentage of drug association was determined. (Lian, T. and Ho, R. J. Y., Recent trend and progress in liposome drug delivery systems; an invited minireview, J Pharm Sci 90:667-680 [2001]). To determine pH-dependent drug dissociation from the lipid-drug complex, the lipid-drug complex (originally prepared in pH 7.4 and free of unincorporated drug) can be incubated at, e.g., pH 7, 6, 5.5, 5, 4, 3.5 for 30 min. Subsequently, the mixture can be subjected to the degree of drug incorporation analysis described above. For animal studies, the drug-lipid complex formulations were further analyzed for sterility and endotoxin contamination. To ensure sterility and prevent underestimation of endotoxin that binds to lipids, the lipid-drug complex preparations were subjected to a blood agar culture test for 7 days at 37° C. for detection of microbial contamination.
Subsequently, the % lipid-association was determined by separating free from lipid-associated drug by size-exclusion column chromatography. Data expressed were means of duplicate preparations for indicated pH value.

[2] = cited from earlier work
[3] = Particle size of lipid-drug complex (photon correlation spectroscopy); format: physicochemical; details: drug associated with lipid membranes, pH 7.4
Description: as §1

HIV-2287 [4] = format: in vivo, Macaca nemestrina; details: for CD4+ T cell, After: after therapy; for CD4+ T cell, After / CD4+ T cell, Before: SC 22 mg/kg daily, 14 doses; for CD4+ T cell, Before: before therapy
Description: Total RNA was isolated from plasma and lymphoid tissues using a Purescript RNA Isolation Kit (Gentra Systems, Minneapolis, Minn.). Viral RNA was measured using a quantitative, internally-controlled RNA PCR to estimate the number of HIV-2 copies/ml of sample (Watson A, Ranchalis J, Travis B, et al., Plasma viremia in macaques infected with simian immunodeficiency virus: plasma viral load early in infection predicts survival, J Virol 1997;71 (1):284-90) for some of the experiments and real-time quantitative PCR. The two methods have been validated to ensure consistency in estimating viral RNA concentration in plasma and tissues. Briefly, reverse transcription and PCR were performed as described. Because semi-quantitative methods have been well-documented (Watson, et al., 1997), only details on RT-QPCR are described below.
Lymphocyte subset analysis: Fluorescent labeled monoclonal antibodies to lymphocyte surface markers were used to quantitate populations of T cells (CD2+), helper T cells (CD4^+), suppressor T cells (CD8^+), and B cells (CD20^+) in maternal (1 ml) and fetal (150 μl) blood using procedures previously described (Ho R J, Agy M B, Morton W R, et al. Development of a chronically catheterized maternal-fetal macaque model to study in utero mother-to-fetus HIV transmission: a preliminary report. J Med Primatol 1996;25 (3):218-24).
Plasma cholesterol level was monitored to evaluate the effects of cholesterol given as a part of lipid formulation.

HIV-2287 [5] = experiment: In situ hybridization of lymph node sections for HIV-2 RNA; format: in vivo, Macaca nemestrina; details: for viral RNA in lymph nodes: 20 mg/kg for 14 days, necropsy day 20
Description: Histological analysis of HIV-infected cells: Histologic sections of lymph node were examined using in situ hybridization for HIV-2 gag RNA. Biopsy and postmortem tissues were preserved in fresh 4% deionized paraformaldehyde, embedded in paraffin wax, and sectioned to 5 μm. The sections were deparaffinized, rehydrated in Tris-buffered saline (TBS; 0.1 M Tris [pH 7.5], 0.1 M NaCl), digested with proteinase K (20-40 μg/ml, 37° C., for 30-50 min; Sigma), and treated overnight at 37° C. in a RNase-free DNase-1 solution (Boehringer Mannheim), as described previously.
The sections were then incubated for 5 min at 70° C. followed by 4 h at 42° C. with antisense RNA probes directed either to SW (strain mac251; Zhang Z Q, Schuler T, Cavert W, et al. Reversibility of the pathological changes in the follicular dendritic cell network with treatment of HIV-1 infection. Proc Nati Acad Sci U S A 1999;96 (9):5169-72) or HIV-2 gag-pol (stain 287; gag 2639-1080, pol 3473-2306; Galabru J, Rey-Cuille M A, Hovanessian A G. Nucleotide sequence of the HIV-2 EHO genome, a divergent HIV-2 isolate. AIDS Res Hum Retroviruses 1995;11 [7]:873-4). The RNA probes were constructed by cloning cDNA into transcription vectors under the control of T7 and SP6 RNA polymerase promoters (pGEM, Promega; Madison, Wis.). […] HIV-2 RNA was detected after autoradiographic exposures of 24 and 96 h.
The presence of viral RNA was indicated by deposition of silver grains on top of cells or as aggregates within lymph node germinal centers (FIG. 7) at a frequency statistically greater than background, as determined using Image-Pro® Plus software (Media Cybernetics, Silver Spring, Md.). Nonspecific background was determined in two ways with equivalent results. Silver grains were counted over 100 germinal center cells in tissue sections from mock-inoculated uninfected animals after hybridization to the HIV-2 or SIV antisense probe, or over cells from the tissues of infected monkeys after hybridization to noncomplimentary ‘sense’ RNA probes. […]

[6] = Example 10; SC 20 mg/kg/day, two animals
[7] = SC 10 mg/kg single dose
Description: These samples were resuspended in 100 μL, and a 10 μL sample was injected onto an RX-C8 column (21 mm×15 cm column) and eluted isocratically with a mobile phase containing 20 mM ammonium acetate in acetonitrile:water (65:35, v/v) running at 0.38 ml/min. […] Under these conditions, the detection limit was 100 pg, which made it possible to measure drug levels, extract RNA and DNA, isolate cells for detailed analyses of vRNA and vDNA-infected cells in lymph nodes, and fix the tissue for pathological analyses from limited sample size.

[8] = Indinavir accumulation in lymph nodes after oral free indinavir; format: in vivo, macaques; details: macaque; for Kp at […]: po, 25 mg/kg; for Kp at […] / Kp at 2 hr / Kp at 3.75 hr: read-out: Lymph node to plasma ratio; for Kp at 2 hr / Kp at 3.75 hr: oral 25 mg/kg; for Kp at 2 hr / concentration at 2 hr: animal 94094; for Kp at 3.75 hr / concentration at 3.75 hr: animal 94096; for concentration at 2 hr / concentration at 3.75 hr: oral 25 mg/kg in solution
[9] = cited from earlier work; remark: listed apart in the source
HIV-1LAV = experiment: Inhibition of HIV-1LAV replication in human PBMCs (p24 antigen); format: cell-based; details: Human immunodeficiency virus 1, PBMC
Description: (§2) The effective concentrations that produce half the maximum anti-HIV activity (EC50) were determined based on non-linear regression of each set of data, representing the frequency of replication.

HIV-2287 [10] = experiment: microbe, parasite or virus in culture; format: cell-based, HIV-2
Description: as §2
After incubating the cells at 37° C. in RPMI 1640 containing 10% fetal calf serum for 4 days (optimum detection time), the presence of virus-infected cells was determined visually by the presence of syncytia and was subsequently confirmed by ELISA detection of the presence of HIV-2 antigen. Experiments were repeated on at least two different days with each determination done in quadruplicate samples, and the data presented in FIG. 3 are the mean % virus-infected cells.

[11] = neutral pH, listed as tenofovir
[12] = axillary lymph node / plasma, axillary
[13] = inguinal lymph node / plasma, inguinal

Structure (SMILES): C[C@H](Cn1cnc2c(N)ncnc21)OCP(=O)(O)O [Tenofovir]
incorporation into lipid-drug complexes (in words) ([1]; neutral pH): quite low efficiency | incorporation into lipid-drug complexes (in words) [1, 11]: much lower efficiency | solubility in water ([2]; neutral pH): soluble in water | solubility in water [2, 11]: quite soluble

Structure (SMILES): Cc1c(O)cccc1C(=O)N[C@@H](CSc1ccccc1)[C@H](O)CN1C[C@H]2CCCC[C@H]2C[C@H]1C(=O)NC(C)(C)C (relative stereo) [Nelfinavir, [3S-[2(2S*, 3S*), 3a,4ab,8ab]]-N-(1,1-dimethylethyl)decahydro-2-[2-hydroxy-3-[(3-hydroxy-2-methylbenzoyl)amino]-4-(phenylthio)butyl]-3-isoquinolinecarboxamide mono-methanesulfonate (salt)]
% Associated with lipid-drug nanoparticles: Nelfinavir ([1]; DSPC:mPE-DSPE formulation): 100 ± 9.8% | Degree of Lipid Association (% total) [1]: 100.5 ± 9.8 % total | incorporation into lipid-drug complexes (in words) ([1]; neutral pH): incorporate nearly completely; also recorded: high degree of lipid association | Size in Diameter [3]: 123 ± 16 nm | solubility in methanol, ethanol, isopropanol and propylene glycol [2]: freely soluble | solubility in water ([2]; pH<4): slightly soluble

Structure (SMILES): Cc1cccc(C)c1OCC(=O)N[C@@H](Cc1ccccc1)[C@@H](O)C[C@H](Cc1ccccc1)NC(=O)[C@H](C(C)C)N1CCCNC1=O [Lopinavir]
% Associated with lipid-drug nanoparticles: Lopinavir ([1]; DSPC:mPE-DSPE formulation): 100 ± 0.9%

Structure (SMILES): CC(C)(C)NC(=O)[C@@H]1CN(Cc2cccnc2)CCN1C[C@@H](O)C[C@@H](Cc1ccccc1)C(=O)N[C@H]1c2ccccc2C[C@H]1O [Indinavir, N-(2(R)-hydroxy-1(S)-indanyl)-2(R)-phenylmethyl-4-(S)-hydroxy-5-(1-(4-(3-pyridyl-methyl)-2(S)-N′-(t-butylcarboxamido)-piperazinyl))-pentaneamide]
% Associated with lipid-drug nanoparticles: Indinavir ([1]; DSPC:mPE-DSPE formulation): 97.5 ± 2.50% | Degree of Lipid Association (% total) [1]: 97.5 ± 2.5 % total | incorporation into lipid-drug complexes (in words) ([1]; neutral pH): completely or nearly completely; also recorded: incorporate nearly completely | indinavir preparation incorporated in lipid-indinavir complex ([1]; neutral pH, lipid-to-drug molar ratio about 5:1 to about 10:1): 80-100% | drug incorporated into the lipid bilayer of liposomes ([1]; pH 4, lipid-to-drug ratio 5:1 (m/m)): < 30% | drug associated with liposome ([1]; pH 7.4, lipid-to-drug ratio 5:1 (m/m)): 85-95% | Size in Diameter [3]: 69 ± 7 nm | plasma virus load (HIV-2287 [4]; Example 10: SC 20 mg/kg/day for 14 days, 30 weeks post-infection): did not exhibit a significant virus load reduction | CD4+ T cells after two weeks of treatment (in words) (HIV-2287 [4]; four HIV-2287-infected animals, Table 5): the same pattern was not observed | CD4+ T cell, After (HIV-2287 [4]; macaque 215): 1473 per μL | CD4+ T cell, Before (HIV-2287 [4]; macaque 215): 1946 per μL | CD4+ T cell, After (HIV-2287 [4]; macaque 283): 1051 per μL | CD4+ T cell, Before (HIV-2287 [4]; macaque 283): 1650 per μL | HIV-2 RNA in lymph node germinal centers (in words) (HIV-2287 [5]; axillary and mesenteric lymph nodes): showed aggregates of HIV-RNA in lymph node germinal centers | viral RNA in lymph nodes (HIV-2287 [5]; macaque 215): 13,290±1,450 gag-pol RNA copies/50× field | viral RNA in lymph nodes (HIV-2287 [5]; macaque 283): 8,134±890 gag-pol RNA copies/50× field | time by which drug levels subsided below detectable levels [6]: 4 to 5 h | time of plasma drug concentration peak [7]: 0.5 to 1 h | Kp at […] ([8]; axillary lymph node / plasma): 0.01 | Kp at 2 hr [8, 12]: 0.02 | Kp at 3.75 hr [8, 12]: 0.0035 | concentration at 2 hr ([8]; axillary lymph node, axillary): 0.084 ng/mL | concentration at 3.75 hr ([8]; axillary lymph node, axillary): 0.141 ng/mL | Kp at […] ([8]; inguinal lymph node / plasma): 0.03 | Kp at 2 hr [8, 13]: 0.01 | Kp at 3.75 hr [8, 13]: 0.01 | concentration at 2 hr ([8]; inguinal lymph node, inguinal): 0.056 ng/mL | concentration at 3.75 hr ([8]; inguinal lymph node, inguinal): 0.481 ng/mL | concentration at 2 hr ([8]; plasma): 5.2 ng/mL | concentration at 3.75 hr ([8]; plasma): 39.8 ng/mL | LogP (lipophilicity) ([9]; pH 3.5): 0 | LogP (lipophilicity) ([9]; pH 5): 1.8 | LogP (lipophilicity) ([9]; pH 7): 3 | EC50 (HIV-1LAV; CD8-depleted human PBMCs, HIV-1 p24 antigen): > 150 nM | inhibition at 15 µM (HIV-1LAV; at 15 μM): < 100% | EC50 (HIV-2287 [10]; Human immunodeficiency virus 2, CEM174, 96 h, read-out: EC50 (50% effective inhibitory concentration)): 50 to 80 nM | EC50 (HIV-2287 [10]; Human immunodeficiency virus 2, CEM174, read-out: in vitro ED50 against HIV-2287): 60 to 80 nM

Now from value to compound, other results behind:

incorporation into lipid-drug complexes (in words) ([1]; neutral pH): completely or nearly completely
Structure (SMILES): O=C(O)CN(CC(=O)O)Cc1cc2c(cc1O)Oc1cc(O)c(CN(CC(=O)O)CC(=O)O)cc1C21OC(=O)c2ccccc21 [calcein]

% Associated with lipid-drug nanoparticles: Saquinavir ([1]; DSPC:mPE-DSPE formulation): 98.9 ± 7.5% | Degree of Lipid Association (% total) [1]: 98.8 ± 7.5 % total | Size in Diameter [3]: 159 ± 36 nm
Structure (SMILES): CC(C)(C)NC(=O)[C@@H]1C[C@@H]2CCCC[C@@H]2CN1C[C@@H](O)[C@H](Cc1ccccc1)NC(=O)[C@H](CC(N)=O)NC(=O)c1ccc2ccccc2n1 [Saquinavir, N-tert-butyl-decahydro-2-[2(R)-hydroxy-4-phenyl-3(S)-[[N-(2-quinolylcarbonyl)-L-asparaginyl]-amino]butyl]-(4aS,8aS)-isoquinoline-3 (S)-carboxamide]
incorporation into lipid-drug complexes (in words) ([1]; neutral pH): incorporate nearly completely; also recorded: high degree of lipid association

Degree of Lipid Association (% total) [1]: 4.2 ± 0.7 % total | Size in Diameter [3]: 60 ± 10 nm
Structure (SMILES): CC(C)OC(=O)OCOP(=O)(CO[C@H](C)Cn1cnc2c(N)ncnc21)OCOC(=O)OC(C)C.O=C(O)/C=C/C(=O)O [Viread ®, 9-[(R)-2-[[bis[[(isopropoxycarbonyl)oxy]methoxy]phosphinyl]methoxy]propyl]adenine fumarate (1:1)]

% Associated with lipid-drug nanoparticles: Ritonavir ([1]; DSPC:mPE-DSPE formulation): 100 ± 1.0%
Structure (SMILES): CC(C)c1nc(CN(C)C(=O)N[C@H](C(=O)N[C@@H](Cc2ccccc2)C[C@H](O)[C@H](Cc2ccccc2)NC(=O)OCc2cncs2)C(C)C)cs1 [Ritonavir]

— US20130085146A1, “LIPID-DRUG FORMULATIONS AND METHODS FOR TARGETED DELIVERY OF LIPID-DRUG COMPLEXES TO LYMPHOID TISSUES” (priority 2003, published 2013)
